pIC50: −log10 of the molar value. Several values for one entry are separate records, joined by “and”; a condition that tells them apart may be missing. Equal values may be shown once.
Experiments:
Experiment in all cases: Kir family selectivity thallium flux assay
Format in all cases: cell-based
Kir2.1 = target: T1, Kir2.1 (Homo sapiens, UniProt P63252)
T1 construct: expressed in transfected cells
T1 sequence (P63252 1-427): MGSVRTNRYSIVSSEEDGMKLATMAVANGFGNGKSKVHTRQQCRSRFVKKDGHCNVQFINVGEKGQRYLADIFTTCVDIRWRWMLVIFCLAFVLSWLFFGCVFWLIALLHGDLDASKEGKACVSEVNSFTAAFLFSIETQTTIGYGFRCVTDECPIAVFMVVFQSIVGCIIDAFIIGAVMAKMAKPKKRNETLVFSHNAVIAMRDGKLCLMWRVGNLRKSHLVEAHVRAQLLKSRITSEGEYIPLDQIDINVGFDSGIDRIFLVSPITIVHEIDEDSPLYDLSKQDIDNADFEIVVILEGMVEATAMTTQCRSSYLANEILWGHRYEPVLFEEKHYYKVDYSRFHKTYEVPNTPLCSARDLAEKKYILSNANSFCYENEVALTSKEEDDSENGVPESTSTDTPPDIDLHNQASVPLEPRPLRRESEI
Description: (§1) Thallium flux assays were conducted using the established methods. Stably transfected T-REx-HEK-293 cells expressing Kir6.2/SUR1 or Kir6.1/SUR2B were cultured overnight in polyamine-coated plates (black-walled, clear-bottomed; BD, Bedford, MA) at a density of 20,000 cells in 20 µl per well of cell culture media. The expression of Kir6.2/SUR1 or Kir6.1/SUR2B channels was induced by treating cells with 1 µg/ml tetracycline overnight. The following day, cells were rinsed with an assay buffer (Hanks’ Balanced Salt Solution supplied with 20 mM HEPES), loaded with the thallium-sensor dye Brilliant Thallos-AM AM (Ion Bioscience, San Marcos, TX) for 1 h, and then washed again with assay buffer to remove unincorporated dye. The cell plate was subsequently placed in a Panoptic Kinetic Imaging Plate Reader (Wavefront Bioscience, Franklin, TN) and imaged at a frequency of 1 Hz using 482/35 nm (excitation) and 536/40 nm (emission) filter sets. Kir6.1/SUR2B channels were activated with 10 µM pinacidil, whereas Kir6.1/SUR1 was activated with 30 µM VU0071063 [34]. To activate KATP channels independent of activators with ATP-depletion method, cells were treated with a cocktail of metabolic inhibitors (2.5 mM sodium cyanide and 20 mM 2-deoxy glucose) for 25 min before imagine. Control and test compounds diluted freshly from DMSO stocks into assay buffer were added to wells for four minutes before adding 0.5 mM chloride-free thallium stimulus buffer (Ion Bioscience) to initiate thallium flux through the expressed KATP channels. Thallium flux was recorded from all 384-wells for 2 min before terminating the experiment. […] Selectivity assays against other Kir channels were performed as described previously.
(§2) To begin elucidating the binding site location of VU0212387, VU0543336, VU0605768, and VU0544086, we evaluated the activity of the inhibitors against KATP channels composed of different Kir and SUR subunit combinations expressed in HEK293 cells. Specifically, the compounds were tested against Kir6.1/SUR1, Kir6.2/SUR1, Kir6.1/SUR2A, Kir6.2/SUR2A, Kir6.1/SUR2B, and Kir6.2/SUR2B at a dose of 3 µM. […] We expanded the selectivity analysis to include 10 other members of the Kir channel family.

Kir3.1/3.4 = target: T2, Kir3.1/3.4 (Homo sapiens, UniProt P48544+P48549); conditions: for pIC50: thallium flux
T2 construct: expressed in transfected cells
T2 sequence (P48549 1-501): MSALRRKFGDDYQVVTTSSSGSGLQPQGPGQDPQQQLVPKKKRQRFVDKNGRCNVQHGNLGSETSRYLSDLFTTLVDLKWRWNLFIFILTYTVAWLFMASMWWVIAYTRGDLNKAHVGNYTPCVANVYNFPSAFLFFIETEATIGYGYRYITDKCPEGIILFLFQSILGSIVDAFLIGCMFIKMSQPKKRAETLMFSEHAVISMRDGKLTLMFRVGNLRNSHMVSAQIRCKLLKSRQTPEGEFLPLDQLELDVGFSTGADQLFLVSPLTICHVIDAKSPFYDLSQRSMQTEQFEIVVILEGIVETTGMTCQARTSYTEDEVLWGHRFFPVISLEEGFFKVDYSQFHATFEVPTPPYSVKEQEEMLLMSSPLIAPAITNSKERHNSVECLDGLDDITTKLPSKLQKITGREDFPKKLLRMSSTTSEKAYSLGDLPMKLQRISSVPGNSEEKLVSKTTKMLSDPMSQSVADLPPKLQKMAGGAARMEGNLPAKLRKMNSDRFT
T2 sequence (P48544 1-419): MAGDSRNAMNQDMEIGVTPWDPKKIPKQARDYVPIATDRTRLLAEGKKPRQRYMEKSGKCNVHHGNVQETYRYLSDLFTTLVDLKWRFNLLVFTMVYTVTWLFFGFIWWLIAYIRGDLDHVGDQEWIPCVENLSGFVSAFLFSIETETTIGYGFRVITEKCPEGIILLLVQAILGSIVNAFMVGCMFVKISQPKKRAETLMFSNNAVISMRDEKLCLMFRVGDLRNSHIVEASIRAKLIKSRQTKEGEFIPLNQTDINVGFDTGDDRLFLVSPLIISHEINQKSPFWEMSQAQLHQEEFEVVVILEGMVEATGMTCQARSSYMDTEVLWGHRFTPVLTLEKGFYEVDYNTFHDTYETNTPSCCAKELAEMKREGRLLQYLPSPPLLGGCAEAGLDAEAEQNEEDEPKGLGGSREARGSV
Description: as §1, §2

Kir7.1 (M125R) = target: T3, Kir7.1 (M125R) (Homo sapiens, UniProt O60928, M125R); conditions: for pIC50: thallium flux
T3 construct: expressed in transfected cells
T3 sequence (O60928 1-360 M125R): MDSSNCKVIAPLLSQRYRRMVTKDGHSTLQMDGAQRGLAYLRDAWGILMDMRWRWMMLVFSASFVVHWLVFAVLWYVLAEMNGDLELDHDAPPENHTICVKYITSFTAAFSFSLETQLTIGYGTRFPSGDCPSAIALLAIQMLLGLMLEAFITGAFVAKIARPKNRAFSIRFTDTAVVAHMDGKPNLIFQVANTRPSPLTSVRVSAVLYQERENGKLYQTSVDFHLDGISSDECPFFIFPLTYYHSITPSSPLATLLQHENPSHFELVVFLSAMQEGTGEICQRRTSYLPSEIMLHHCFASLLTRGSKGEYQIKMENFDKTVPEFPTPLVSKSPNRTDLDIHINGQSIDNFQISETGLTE
Description: as §1, §2

SMILES | pIC50 (Kir2.1) | pIC50 (Kir3.1/3.4) | pIC50 (Kir7.1 (M125R)) | inhibition at 30 µM (Kir3.1/3.4; observed at 30 µM, read-out: Percent maximal inhibition of Kir3.1/3.4) | inhibition at 30 µM (Kir7.1 (M125R); observed at 30 µM, read-out: Percent maximal inhibition of Kir7.1 (M125R))
O=C1c2oc3ccccc3c(=O)c2C(c2cccc(Br)c2)N1CCO (centres unmarked) [VU0605768, 1-(3-bromophenyl)-2-(2-hydroxyethyl)-1,2-dihydrochromeno[2,3-c]pyrrole-3,9-dione] | < 4.52 | < 4.52 | < 4.52 | – | –
O=C(NCc1cc(-c2ccncc2)n(C2CCCC2)n1)Nc1cccs1 [VU0544086, 1-((1-cyclopentyl-5-(pyridin-4-yl)-1 H-pyrazol-3-yl)methyl)-3-(thiophen-2-yl)urea] | < 4.52 | 4.79 | < 4.52 | 92% | –
c1ccc2[nH]c(CSc3ncnc4c3oc3ccccc34)nc2c1 [VU0212387, 4-(((1 H-benzo[d]imidazol-2-yl)methyl)thio)benzofuro[3,2-d]pyrimidine] | < 4.52 | < 4.52 | 4.92 and 4.91 | – | 69%
O=C(NCC(O)(c1ccccc1)C(F)(F)F)c1ccc(OC(F)(F)F)cc1 (centres unmarked) [VU0543336, N-(3,3,3-trifluoro-2-hydroxy-2-phenylpropyl)-4-(trifluoromethoxy)benzamide] | < 4.52 | < 4.52 | < 4.52 | – | –

— paper PMC11418212, “Characterization of four structurally diverse inhibitors of SUR2-containing KATP channels” (Channels, 2024)
